# How the values were obtained:
# [1] = test system: α-isomaltosyl-transferring enzyme from Bacillus globisporus C9; experiment: Formation of cyclotetrasaccharide from components A, B and C; type: biochemical; conditions: Enzyme of Strain C9
# Procedure: (§1) Using a purified α-isomaltosyl-transferring enzyme, the formation of cyclotetrasaccharide from the above-identified components A, B and C was examined as follows: One percent (w/v) of an aqueous solution (pH 6.0) of the component A (3-O-α-isomaltosylpanose represented by Chemical Formula 1), the component B (4-O-α-isomaltosylpanose represented by Chemical Formula 2), or the component C (1-O-α-isomaltosyl-β-panoside represented by Chemical Formula 3) was prepared into a substrate solution. To each of the resulting solutions was added one unit/g substrate of a purified specimen of α-isomaltosyl-transferring enzyme from Bacillus globisporus C9 obtained by the method in Experiment 4, or Bacillus globisporus C11 obtained by the method in Experiment 7, followed by enzymatic reaction at 35° C. for eight hours. Thereafter, the resulting mixtures were analyzed on HPLC for saccharide composition (%).
# [2] = test system: α-isomaltosyl-transferring enzyme from Bacillus globisporus C11; experiment: as above; type: biochemical; conditions: Enzyme of Strain C11
# Procedure: as §1
# [3] = 1% (w/v) substrate, pH 6.0, 1 unit/g substrate, 35° C., 8 hours
smiles,measurement,setting,value
"OC[C@H]1O[C@H](OC[C@H]2O[C@H](O[C@@H]3[C@@H](O)[C@@H](OC[C@H]4O[C@H](O[C@H]5[C@H](O)[C@@H](O)C(O)O[C@@H]5CO)[C@H](O)[C@@H](O)[C@@H]4O)O[C@H](CO)[C@H]3O)[C@H](O)[C@@H](O)[C@@H]2O)[C@H](O)[C@@H](O)[C@@H]1O (stereo partly drawn) [Component A, 3-O-α-isomaltosylpanose]","Saccharide composition, remaining Substrate",[1]; [3],9.3%
same,"Saccharide composition, Cyclotetrasaccharide","[1]; 35° C., 8 hours",67.6%
same,"Saccharide composition, Glucose","[1]; 35° C., 8 hours",17.2%
same,"Saccharide composition, Others","[1]; 35° C., 8 hours",5.9%
same,Molar ratio of the formed glucose and cyclotetrasaccharide: cyclotetrasaccharide,[1]; numeral in parenthesis,(1.09)
same,Molar ratio of the formed glucose and cyclotetrasaccharide: glucose,[1]; numeral in parenthesis,(1.00)
same,"Saccharide composition, remaining Substrate",[2]; [3],9.0%
same,"Saccharide composition, Cyclotetrasaccharide","[2]; 35° C., 8 hours",67.4%
same,"Saccharide composition, Glucose","[2]; 35° C., 8 hours",17.4%
same,"Saccharide composition, Others","[2]; 35° C., 8 hours",6.2%
same,Molar ratio of the formed glucose and cyclotetrasaccharide: cyclotetrasaccharide,[2]; numeral in parenthesis,(1.08)
same,Molar ratio of the formed glucose and cyclotetrasaccharide: glucose,[2]; numeral in parenthesis,(1.00)

# Source: US7192746B2, “α-Isomaltosyltransferase, process for producing the same and use thereof” (Kabushiki Kaisha Hayashibara Seibutsu Kagaku Kenkyujo, priority 2000, dated 2007)
